# Source: patent EP2471783A1, “Novel polymorphic form of efavirenz” (Esteve Química, S.A., priority 2010, dated 2012)
# How the values were obtained:
# [1] = cited from earlier work
# [2] = Dissolution studies in heptane (solubility curve, dissolution point by turbidity); assay type: physicochemical; conditions: for Dissolution Temperatures: in heptane, heating ramp 0.2°C/min, 10% reduction in turbidity; for solubility in heptane, compared between forms: temperature range studied 17-82°C
# Method: To determine the solubility curve of a given polymorphic form, different concentrations in heptane were prepared and charged to a HEL multi-reactor, using 100 mL vessels. These reactors were equipped with 4-blade PTFE turbines, (set to 150 rpm), temperature probes and turbidity probes. Temperature was controlled by applying the same re-circulating heater-chiller unit to all vessel jackets and using individual temperature compensation by external heating plates below each vessel. Heating ramps of 0.2°C/min were applied to each vessel, and the dissolution point determined by a 10% reduction in turbidity. […] Table VI. Results for solubility in heptane
# [3] = Dissolution studies in ethanol-water (volume of ethanol required for dissolution of an aqueous suspension); assay type: physicochemical; conditions: suspension in water 20 mL with DSS 0.02 g, 20°C, ethanol added at 0.2 mL/min, 50% reduction in turbidity
# Method: Dissolution experiments were performed for forms I, III and C of Efavirenz. To an aqueous suspension of each form, ethanol was added and the volume recorded in order for dissolution. Efavirenz is hydrophobic and has a tendency to float in water. To improve the dispersion of efavirenz in water, a surfactant was used, namely, docusate sodium (DSS), the dioctyl ester of sodium sulfosuccinate. DSS is a widely used pharmaceutical excipient and food additive. Efavirenz, polymorphic form and quantity as indicated in the table V, was suspended in water (milliQ, 20 mL) with DSS (docusate sodium, 0.02 g) in a 100 mL vessel. This mixture was placed in an ultrasonic batch for 5 minutes to break up any agglomerates and then the vessel was transferred to an automated (HEL) reaction block equipped with pitched 4-blade turbine PTFE agitators (set to 120 rpm), turbidity probes and syringe pumps. The temperature inside the vessels was controlled by jackets connected to a re-circulating heater-chiller unit. The mixtures were agitated at 20°C and turbidity probes adjusted before addition of ethanol at a continuous rate of 0.2 mL/min via the syringe pumps. The volume of ethanol required for dissolution was taken as that required for a 50% reduction in the turbidity reading. […]
# [4] = Accelerated stability conditions; assay type: physicochemical
# Text: Thus, in one aspect, the present invention is directed to a polymorphic form C of Efavirenz characterized by an X-ray powder diffraction pattern which comprises characteristic 2θ values at: 7.1, 7.3, 11.0, 13.8, 14.2, 14.6, 19.1, 20.9, 21.2, 24.5 and 24.9 ± 0.2 degrees 2θ.
# [5] = Comparative and competitive slurry experiments (mixtures of forms, followed by powder X-ray diffraction); assay type: physicochemical
# Method: Mixtures of Efavirenz form I with form III or form C were prepared according to table II. The suspensions were stirred at 20°C with small PTFE coated cross-shaped magnetic stirrers and samples taken after 1, 2 and 7 days, filtered, dried at ambient temperature under vacuum for 20 minutes and analyzed by powder X-ray diffraction.
# [6] = slurry in ethanol/water, 20°C, samples after 1, 2 and 7 days
Structure (SMILES),aqueous solubility [1],"Dissolution Temperatures ([2]; concentration 0,010 g/mL)","Dissolution Temperatures ([2]; concentration 0,040 g/mL)","Dissolution Temperatures ([2]; concentration 0,067 g/mL)","Dissolution Temperatures ([2]; concentration 0,200 g/mL)","solubility in heptane, compared between forms [2]","volume of ethanol required to achieve dissolution, compared between forms [3]",stability ([4]; 25°C and 60% relative humidity),stability ([4]; 40°C and 75% relative humidity),"conversion of form C into form I ([5]; form C in its pure form, without any contamination with form I)","content of form C in a mixture of form I and form C [5, 6]","content of form C in a mixture of form I and form C ([5]; slurry in methanol/water, 20°C, samples after 1, 2 and 7 days)","content of form I in a mixture of form I and form III [5, 6]","Dissolution Temperatures ([2]; concentration 0,180 g/mL)"
"O=C1Nc2ccc(Cl)cc2[C@@](C#CC2CC2)(C(F)(F)F)O1 [Efavirenz, (4S)-6-chloro-4-(cyclopropylethynyl)-4-(trifluoromethyl)-1,4-dihydro-2H-3,1-benzoxazin-2-one]",extremely poor,,,,,,,,,,,,,
"O=C1Nc2ccc(Cl)cc2[C@@](C#CC2CC2)(C(F)(F)F)O1 [Form C, (4S)-6-chloro-4-(cyclopropylethynyl)-4-(trifluoromethyl)-1,4-dihydro-2H-3,1-benzoxazin-2-one]",,17 °C,49 °C,56 °C,71 °C,more soluble in heptane than forms I and III,consistently requires less volume of ethanol than forms I and III,stable during at least three months,stable during at least three months,not observed,"decreases with time, although some still remains in the mixture after 7 days",a similar trend is observed although the transformation is slower,,
"O=C1Nc2ccc(Cl)cc2[C@@](C#CC2CC2)(C(F)(F)F)O1 [Form I, (4S)-6-chloro-4-(cyclopropylethynyl)-4-(trifluoromethyl)-1,4-dihydro-2H-3,1-benzoxazin-2-one]",,29 °C,64 °C,74 °C,82 °C,less soluble at high temperature,,,,,,,"decreases with time, and after 7 days the mixture has converted completely to form III",
"O=C1Nc2ccc(Cl)cc2[C@@](C#CC2CC2)(C(F)(F)F)O1 [Form III, (4S)-6-chloro-4-(cyclopropylethynyl)-4-(trifluoromethyl)-1,4-dihydro-2H-3,1-benzoxazin-2-one]",,31 °C,55 °C,62 °C,,less soluble at low temperature,,,,,,,,75 °C
